The record followed here is PubChem BioAssay AID330 (DTP/NCI, 2004).

This assay concerns P388 leukemia ip, CD2F1 mice, survival T/C. In words: NCI In Vivo Anticancer Drug Screen. Data for tumor model P388 Leukemia (intraperitoneal) in CD2F1 (CDF1) mice. The settings on record: endpoint: median survival time, higher = longer survival. An outline of the steps:
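Mice carrying the transplanted tumor received test compound or vehicle. Survival was recorded in each group, and the value is the treated-group measurement divided by that of the vehicle-treated control group.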

Where [1] appears, read: dose: 15.0 mg/kg/injection, schedule: Q01DX005 (ip), vehicle: Klucel (hydroxypropylcellulose) (HPC).
Where [2] appears, read: dose: 30.0 mg/kg/injection, schedule: Q01DX005 (ip), vehicle: Klucel (hydroxypropylcellulose) (HPC).
[3] abbreviates: dose: 60.0 mg/kg/injection, schedule: Q01DX005 (ip), vehicle: Klucel (hydroxypropylcellulose) (HPC).
Where [4] appears, read: dose: 50.0 mg/kg/injection, schedule: Q01DX009 (ip), vehicle: saline with Tween-80.
Where [5] appears, read: dose: 100.0 mg/kg/injection, schedule: Q01DX009 (ip), vehicle: saline with Tween-80.
Where [6] appears, read: dose: 200.0 mg/kg/injection, schedule: Q01DX009 (ip), vehicle: saline with Tween-80.
[7] abbreviates: dose: 50.0 mg/kg/injection, schedule: Q01DX005 (ip), vehicle: Klucel (hydroxypropylcellulose) (HPC).
[8] abbreviates: dose: 100.0 mg/kg/injection, schedule: Q01DX005 (ip), vehicle: Klucel (hydroxypropylcellulose) (HPC).
The mark [9] stands for this setting: dose: 25.0 mg/kg/injection, schedule: Q01DX009 (ip), vehicle: saline.
[10] abbreviates: dose: 50.0 mg/kg/injection, schedule: Q01DX009 (ip), vehicle: saline.
[11] abbreviates: dose: 100.0 mg/kg/injection, schedule: Q01DX009 (ip), vehicle: saline.
Setting [12] is: dose: 200.0 mg/kg/injection, schedule: Q01DX005 (ip), vehicle: Klucel (hydroxypropylcellulose) (HPC).
Where [13] appears, read: dose: 25.0 mg/kg/injection, schedule: Q01DX005 (ip), vehicle: saline with Tween-80.
Setting [14] is: dose: 50.0 mg/kg/injection, schedule: Q01DX005 (ip), vehicle: saline with Tween-80.
The mark [15] stands for this setting: dose: 100.0 mg/kg/injection, schedule: Q01DX005 (ip), vehicle: saline with Tween-80.
Where [16] appears, read: dose: 60.0 mg/kg/injection, schedule: Q01DX005 (ip), vehicle: saline with Tween-80.
[17] abbreviates: dose: 120.0 mg/kg/injection, schedule: Q01DX005 (ip), vehicle: saline with Tween-80.
Where [18] appears, read: dose: 240.0 mg/kg/injection, schedule: Q01DX005 (ip), vehicle: saline with Tween-80.

Values joined by “and” are separate entries in the source; they are usually repeats but may differ in a detail not shown here. Identical values can stand only once. Inconclusive results and toxic doses are left out.

`Cc1cc2c(C)c(-c3ccccc3)c(=O)oc2c(C#N)c1C`: the T/C under setting [1] is 104 % of control; the T/C under setting [2] was 95 % of control; the T/C under setting [3] is 90 % of control and 95 % of control.
In the case of `CCn1c(=O)c2[nH]c(Cl)nc2n(CC)c1=O`, the T/C (dose: 25.0 mg/kg/injection, schedule: Q04DX003 (ip), vehicle: water) was 91 % of control; the T/C (dose: 50.0 mg/kg/injection, schedule: Q04DX003 (ip), vehicle: water) was 103 % of control; the T/C (dose: 100.0 mg/kg/injection, schedule: Q04DX003 (ip), vehicle: water) is 112 % of control.
`CN(C)c1ccc(C(=O)C(O)c2ccccc2Cl)cc1` (configuration not stated): the T/C runs as follows: (dose: 25.0 mg/kg/injection, schedule: Q01DX009 (ip), vehicle: saline with Tween-80) 104 % of control; under setting [4], 96 % of control; under setting [5], 96 % of control; under setting [6], 98 % of control.
With `CC(C)(O)/C=C/C(=O)[C@](C)(O)[C@H]1[C@H](O)C[C@@]2(C)[C@@H]3CC=C4[C@@H](C=C(O)C(=O)C4(C)C)[C@]3(C)C(=O)C[C@]12C`, the T/C reads like this: (dose: 0.25 mg/kg/injection, schedule: Q01DX005 (ip), vehicle: water) 112 % of control; (dose: 0.25 mg/kg/injection, schedule: Q01DX010 (ip), vehicle: saline) 100 % of control; (dose: 0.5 mg/kg/injection, schedule: Q01DX005 (ip), vehicle: water) 100 % of control; (dose: 0.5 mg/kg/injection, schedule: Q01DX010 (ip), vehicle: saline) 104 % of control; (dose: 1.0 mg/kg/injection, schedule: Q01DX005 (ip), vehicle: water) 105 % of control; (dose: 1.0 mg/kg/injection, schedule: Q01DX010 (ip), vehicle: saline) 109 % of control. For the same compound, the T/C (dose: 2.0 mg/kg/injection, schedule: Q01DX005 (ip), vehicle: water) was 105 % of control.
In the case of `[C-]#[N+]C1CC2CCC1C2.[C-]#[N+]C1CC2CCC1C2.[C-]#[N+]C1CC2CCC1C2.[C-]#[N+]C1CC2CCC1C2.[C-]#[N+]C1CC2CCC1C2.[C-]#[N+]C1CC2CCC1C2.[Mn]` (configuration not stated), the T/C reads like this: (dose: 0.19 mg/kg/injection, schedule: Q01DX009 (ip), vehicle: saline with Tween-80) 115 % of control; (dose: 0.38 mg/kg/injection, schedule: Q01DX009 (ip), vehicle: saline with Tween-80) 156 % of control.
In the case of `CC1CCCCC12C(C#N)(C#N)C2(C#N)C#N` (configuration not stated), the T/C (dose: 12.5 mg/kg/injection, schedule: Q04DX003 (ip), vehicle: Klucel (hydroxypropylcellulose) (HPC)) is 101 % of control and the T/C (dose: 25.0 mg/kg/injection, schedule: Q04DX003 (ip), vehicle: Klucel (hydroxypropylcellulose) (HPC)) was 102 % of control.
For `N#CC(C(=O)O)C1(c2ccccc2)CCCCC1` (configuration not stated), the T/C reads like this: under setting [4], 101 % of control; under setting [5], 93 % of control; under setting [6], 105 % of control.
On to `C[C@@H]1C[C@H]2OC(=O)[C@@]3(C)CCC[C@@](C)([C@@H]23)[C@@]1(O)CCc1ccoc1`, for which the T/C (dose: 12.5 mg/kg/injection, schedule: Q01DX005 (ip), vehicle: Klucel (hydroxypropylcellulose) (HPC)) was 108 % of control; the T/C (dose: 25.0 mg/kg/injection, schedule: Q01DX005 (ip), vehicle: Klucel (hydroxypropylcellulose) (HPC)) was 105 % of control; the T/C under setting [7] is 106 % of control; the T/C under setting [8] is 97 % of control.
On to `Fc1cccc(NC(=S)SCc2ccc(Cl)cc2)c1`, for which the T/C reads like this: under setting [9], 102 % of control; under setting [10], 105 % of control; under setting [11], 105 % of control; (dose: 100.0 mg/kg/injection, schedule: Q01DX009 (ip), vehicle: suspension in saline) 103 % of control.
On to `N#CC(C#N)=C1Cc2ccccc2C1`, for which the T/C reads like this: (dose: 25.0 mg/kg/injection, schedule: Q01DX001 (ip), vehicle: saline with Tween-80) 109 % of control; (dose: 50.0 mg/kg/injection, schedule: Q01DX001 (ip), vehicle: saline with Tween-80) 100 % of control.
Regarding `NC(CSSCC(N)C(=O)c1ccccc1)C(=O)c1ccccc1` (configuration not stated), the T/C is 98 % of control under setting [7], 98 % of control under setting [8] and 105 % of control under setting [12].
Turning to `COC(=O)C(C(=O)OC)=S1C(Cl)=CC=C1Cl`, the T/C reads like this: (dose: 100.0 mg/kg/injection, schedule: Q04DX003 (ip), vehicle: saline) 108 % of control; (dose: 200.0 mg/kg/injection, schedule: Q04DX003 (ip), vehicle: saline) 104 % of control; (dose: 400.0 mg/kg/injection, schedule: Q04DX003 (ip), vehicle: saline) 106 % of control.
As for `CCN1CC2(C)CCC(O)C34C2C(OC)C(O)(C13)C1(O)CC(OC)C2CC4(O)C1C2OC(=O)c1ccccc1` (configuration not stated), the T/C is 102 % of control (dose: 1.0 mg/kg/injection, schedule: Q01DX005 (ip), vehicle: saline + alcohol); 106 % of control (dose: 2.0 mg/kg/injection, schedule: Q01DX005 (ip), vehicle: saline + alcohol); 108 % of control (dose: 4.0 mg/kg/injection, schedule: Q01DX005 (ip), vehicle: saline + alcohol); 100 % of control (dose: 8.0 mg/kg/injection, schedule: Q01DX005 (ip), vehicle: saline + alcohol).
Take `c1cncc(CNCc2cccnc2)c1`: the T/C reads like this: under setting [9], 94 % of control; under setting [10], 110 % of control; under setting [11], 97 % of control; (dose: 200.0 mg/kg/injection, schedule: Q01DX009 (ip), vehicle: saline) 94 % of control.
Regarding `CCN(CC)Cc1cc2[nH]c3c4ccc(Cl)cc4ncc3c2cc1OC` (tested in a mixture with another compound), the T/C runs as follows: (dose: 12.5 mg/kg/injection, schedule: Q01DX005 (ip), vehicle: saline with Tween-80) 100 % of control and 108 % of control; under setting [13], 109 % of control [middle of 4 runs]; under setting [14], 102 % of control and 103 % of control and 113 % of control; under setting [15], 105 % of control and 109 % of control and 106 % of control.
As to `COc1ccc(C=C(C(=O)CCN(C)C)C(=O)CCN(C)C)cc1`, the T/C by setting is: (dose: 50.0 mg/kg/injection, schedule: Q01DX005 (ip), vehicle: saline) 105 % of control; (dose: 100.0 mg/kg/injection, schedule: Q01DX005 (ip), vehicle: saline) 100 % of control.
Take `O=C(O)C1CC2c3ccccc3C1([N+](=O)[O-])c1ccccc12` (configuration not stated): the T/C under setting [16] is 101 % of control, the T/C under setting [17] was 104 % of control and the T/C under setting [18] is 109 % of control.
Consider `NC(=O)C1(Br)C=[N+](Cc2ccccc2)CCC1` (configuration not stated), for which the T/C by setting is: (dose: 60.0 mg/kg/injection, schedule: Q01DX005 (ip), vehicle: saline) 103 % of control; (dose: 120.0 mg/kg/injection, schedule: Q01DX005 (ip), vehicle: saline) 95 % of control.
For the compound `CCc1nc(N)nc(N)c1-c1ccc(N(C)C)c(N=[N+]=[N-])c1`, the T/C is 96 % of control under setting [1]; 92 % of control under setting [2]; 105 % of control and 113 % of control under setting [3].
With `N=c1nc(N)nc2n1N=C(c1ccc(Cl)cc1)CS2`, the T/C by setting is: under setting [13], 102 % of control; under setting [14], 92 % of control; under setting [15], 90 % of control.
Turning to `C1OC1C1CO1` (configuration not stated), the T/C was 113 % of control (dose: 10.0 mg/kg/injection, schedule: Q04DX003 (ip), vehicle: saline); 109 % of control (dose: 13.2 mg/kg/injection, schedule: Q01DX009 (ip), vehicle: saline); 113 % of control (dose: 20.0 mg/kg/injection, schedule: Q04DX003 (ip), vehicle: saline); 118 % of control (dose: 30.0 mg/kg/injection, schedule: Q01DX009 (ip), vehicle: saline); 95 % of control (dose: 40.0 mg/kg/injection, schedule: Q01DX009 (ip), vehicle: saline); 109 % of control (dose: 40.0 mg/kg/injection, schedule: Q04DX003 (ip), vehicle: saline).
As to `Cc1cc(C)nc(/C=C(\NC(=O)c2ccccc2)c2ccccc2)c1`, the T/C by setting is: under setting [16], 108 % of control; under setting [17], 102 % of control; under setting [18], 101 % of control.
`Cc1nc2ncn(-c3ccccc3)c2c(=O)n1Cc1ccco1`: the T/C reads like this: under setting [7], 103 % of control; under setting [8], 103 % of control; under setting [12], 95 % of control.
